Experimental findings from ChEMBL document CHEMBL6177991, “Discovery of P11-2: A Potent First-in-Class MNK1-Targeting PROTAC Degrader for the Treatment of Cancer” (J Med Chem, 2025) are described below.

Each structure is given as a SMILES string. pIC50: −log10 of the molar value. Active and inactive are the calls of the source. The calls are words filed in the database; no cut-off is given here.

Data set [1] concerns MV4-11. In words: Anti-proliferative activity against human MV4-11 cells measured after 72 hrs by CCK8 assay. To be noted: MV4-11, 72 h. Background: Formazan colour is commonly taken as a measure of viable cells.
Data set [2] relates to MM1.S. In words: Anti-proliferative activity against human MM1.S cells measured after 120 hrs by CCK8 assay.
The subject of data set [3] is MDA-MB-231. In words: Anti-proliferative activity against human MDA-MB-231 cells measured after 96 hrs by CCK8 assay. To be noted: MDA-MB-231, 96 h.
Data set [4] concerns MOLM-13. The data set can be described thus: Anti-proliferative activity against human MOLM-13 cells measured after 72 hrs by CCK8 assay. To be noted: MOLM-13, 72 h.
The test system of data set [5] is MV4-11. In words: Induction of apoptosis in human MV4-11 cells assessed as necrotic cells at 300 nM incubated for 24 hrs by Annexin V-FITC/PI dual staining based flow cytometric analysis (reference value: 0.16 %). It counts as functional. (In general: In flow cytometry, cells or beads pass a laser one at a time.)
In data set [6] the test system is MV4-11. In words: Antitumor activity against human MV4-11 cells xenografted in nude female NSG mouse assessed as tumor growth inhibition at 20 mg/kg, ip qd administrated for 16 days by caliper method relative to control. It counts as functional. To be noted: MV4-11, 384 h, time 16 day, read-out: TGI.
Data set [7] concerns MV4-11. The data set can be described thus: Induction of apoptosis in human MV4-11 cells assessed as early apoptotic cells at 300 nM incubated for 24 hrs by Annexin V-FITC/PI dual staining based flow cytometric analysis (reference value: 3.42 %). It counts as functional.
Data set [8] addresses MAP kinase-interacting serine/threonine-protein kinase 1 (Homo sapiens, UniProt Q9BUB5). In words: Inhibition of recombinant MNK1 (unknown origin) using TATKSGSTTKNR peptide as substrate preincubated for 5 mins followed by ATP addition and measured after 40 mins by ADP-Glo kinase assay.
Data set [9] is described as follows: Toxicity in nude female NSG mouse xenografted with human MV4-11 cells assessed as change in body weight at 20 mg/kg, ip qd administrated for 16 days. To be noted: in vivo, 384 h, time 16 day. It counts as organism-based. On the technique in general: Xenograft models place foreign cells or tissue in a host animal.
Data set [10] deals with MV4-11. The data set can be described thus: Induction of apoptosis in human MV4-11 cells assessed as late apoptotic cells at 300 nM incubated for 24 hrs by Annexin V-FITC/PI dual staining based flow cytometric analysis (reference value: 1.48 %). It counts as functional.
Data set [11] has as its system MV4-11. The data set can be described thus: Induction of MNK2 degradation in human MV4-11 cells at 300 to 1000 nM incubated for 24 hrs by immunoblot analysis. It counts as cell-based. To be noted: dose 300-1000 nM.
Data set [12] relates to MV4-11. The data set can be described thus: Induction of apoptosis in human MV4-11 cells assessed as viable cells at 300 nM incubated for 24 hrs by Annexin V-FITC/PI dual staining based flow cytometric analysis (reference value: 94.9 %). It counts as functional. To be noted: read-out: Activity.

MAP kinase-interacting serine/threonine-protein kinase 1, sequence (Q9BUB5 whole entry): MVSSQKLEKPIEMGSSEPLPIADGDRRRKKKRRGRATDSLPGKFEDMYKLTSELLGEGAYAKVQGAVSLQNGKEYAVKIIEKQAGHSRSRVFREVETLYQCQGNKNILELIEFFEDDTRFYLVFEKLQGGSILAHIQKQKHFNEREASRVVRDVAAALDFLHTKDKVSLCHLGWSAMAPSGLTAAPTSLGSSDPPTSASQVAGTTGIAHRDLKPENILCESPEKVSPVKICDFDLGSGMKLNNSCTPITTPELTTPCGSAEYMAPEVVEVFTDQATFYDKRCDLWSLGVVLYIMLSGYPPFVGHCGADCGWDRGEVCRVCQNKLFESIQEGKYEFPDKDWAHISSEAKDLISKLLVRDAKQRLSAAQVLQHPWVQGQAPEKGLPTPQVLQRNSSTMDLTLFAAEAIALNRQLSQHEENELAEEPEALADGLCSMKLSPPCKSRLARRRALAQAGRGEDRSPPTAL

In [1], `O=C(CC(=O)N1CCC(C(=O)Nc2ncc(-c3ccccc3)s2)CC1)NCCOCC(=O)Nc1cccc2c1CN(C1CCC(=O)NC1=O)C2=O` (stereo not drawn) gave a pIC50 below 5.00.

With `O=C1CCC(N2Cc3c(NC(=O)CCCCCCCN4CCC(C(=O)Nc5ncc(-c6ccccc6)s5)CC4)cccc3C2=O)C(=O)N1` (stereo not drawn), the pIC50 in data set [1] was below 5.00.

In data set [1], `O=C(CC(=O)N1CCC(C(=O)Nc2ncc(-c3ccccc3)s2)CC1)NCCCCCCCC(=O)Nc1cccc2c1CN(C1CCC(=O)NC1=O)C2=O` (stereo not drawn) gave a pIC50 of 5.27.

For `O=C1CCC(N2C(=O)c3cc(F)c(N4CCN(C(=O)CCCCCCC(=O)N5CCC(C(=O)Nc6ncc(-c7ccccc7)s6)CC5)CC4)cc3C2=O)C(=O)N1` (stereo not drawn), the negative-log IC50 (pIC50) in data set [2] is 5.42; in data set [3] it was below 4.70; in data set [1] it was 5.64; in data set [4] it was 5.00.

With `O=C1CCC(N2Cc3c(NC(=O)CCCCCCCC(=O)N4CCC(C(=O)Nc5ncc(-c6ccccc6)s5)CC4)cccc3C2=O)C(=O)N1` (stereo not drawn), the pIC50 in data set [1] was 5.34.

In [1], `O=C1CCC(N2Cc3c(NC(=O)CCCCN4CCC(C(=O)Nc5ncc(-c6ccccc6)s5)CC4)cccc3C2=O)C(=O)N1` (stereo not drawn) had a pIC50 of 5.47.

`O=C1CCC(N2Cc3c(NC(=O)CCCCCCCCC(=O)N4CCC(C(=O)Nc5ncc(-c6ccccc6)s5)CC4)cccc3C2=O)C(=O)N1` (stereo not drawn) showed a pIC50 in [1] of 5.28.

In data set [1], `O=C1CCC(N2C(=O)c3cc(F)c(N4CCN(C(=O)CC(=O)N5CCC(C(=O)Nc6ncc(-c7ccccc7)s6)CC5)CC4)cc3C2=O)C(=O)N1` (stereo not drawn) showed a pIC50 below 5.00.

The compound `O=C(CC(=O)N1CCC(C(=O)Nc2ncc(-c3ccccc3)s2)CC1)NCCCCC(=O)Nc1cccc2c1CN(C1CCC(=O)NC1=O)C2=O` (stereo not drawn) showed a pIC50 in [1] of 5.21.

With `O=C1CCC(N2C(=O)c3cc(F)c(N4CCN(C(=O)CCCCC(=O)N5CCC(C(=O)Nc6ncc(-c7ccccc7)s6)CC5)CC4)cc3C2=O)C(=O)N1` (stereo not drawn), in data set [1], the pIC50 is below 5.00.

In the case of `O=C1CCC(N2Cc3c(NC(=O)CCCCCN4CCC(C(=O)Nc5ncc(-c6ccccc6)s5)CC4)cccc3C2=O)C(=O)N1` (stereo not drawn), the pIC50 in data set [2] was 5.91; in [3], 4.91; in data set [1], 6.05; in data set [4] it was 4.94.

Regarding `CN1C(=O)CCC(N2Cc3c(NC(=O)CCCCCC(=O)N4CCC(C(=O)Nc5ncc(-c6ccccc6)s5)CC4)cccc3C2=O)C1=O` (stereo not drawn), in data set [1], the pIC50 is below 5.00.

Regarding `O=C1CCC(N2Cc3c(NC(=O)CCCOc4ccc(CC(=O)N5CCC(C(=O)Nc6ncc(-c7ccccc7)s6)CC5)cc4)cccc3C2=O)C(=O)N1` (stereo not drawn), in data set [1], the pIC50 is 5.20.

The compound `O=C(CC(=O)N1CCC(C(=O)Nc2ncc(-c3ccccc3)s2)CC1)NCCCCCC(=O)Nc1cccc2c1CN(C1CCC(=O)NC1=O)C2=O` (stereo not drawn) gave a pIC50 in data set [1] of 5.15.

Regarding `O=C1CCC(N2Cc3c(NC(=O)CCCCOc4ccc(CC(=O)N5CCC(C(=O)Nc6ncc(-c7ccccc7)s6)CC5)cc4)cccc3C2=O)C(=O)N1` (stereo not drawn), the negative-log IC50 (pIC50) in data set [2] was 5.61; in data set [3], below 4.70; in [1], 5.84; in data set [4], 5.02.

Compound `O=C1CCC(N2C(=O)c3cc(F)c(N4CCN(C(=O)CCCCN5CCC(C(=O)Nc6ncc(-c7ccccc7)s6)CC5)CC4)cc3C2=O)C(=O)N1` (stereo not drawn) gave a pIC50 in [1] of 5.10.

For `CN1CCC(C(=O)Nc2ncc(-c3ccccc3)s2)CC1`, the Activity is recorded as 0.49% in data set [5], 9.59% in [7], “Non-toxic” in data set [9] and 3.75% in data set [10]. Also, the pIC50 is 5.27 in data set [2]; below 4.70 in data set [3]; 6.41 in data set [8]; 5.48 in [1]; 4.92 in [4]. In addition, in data set [6], the inhibition in vivo at 20 mg/kg was 28%. Also, the result in [11] was inactive. Also, in data set [12], the viability at 0.3 µM turned out to be 86.2%.

In data set [1], `O=C1CCC(N2C(=O)c3cc(F)c(N4CCN(C(=O)CCC(=O)N5CCC(C(=O)Nc6ncc(-c7ccccc7)s6)CC5)CC4)cc3C2=O)C(=O)N1` (stereo not drawn) gave a pIC50 of 5.29.

The compound `O=C(CCC(=O)N1CCC(C(=O)Nc2ncc(-c3ccccc3)s2)CC1)NCCCCCC(=O)Nc1cccc2c1CN(C1CCC(=O)NC1=O)C2=O` (stereo not drawn) showed a pIC50 in data set [1] below 5.00.

On to `O=C1CCC(N2Cc3c(NC(=O)CCCCC(=O)N4CCC(C(=O)Nc5ncc(-c6ccccc6)s5)CC4)cccc3C2=O)C(=O)N1` (stereo not drawn), for which the pIC50 in data set [1] was 5.66.

For `O=C1CCC(N2C(=O)c3cc(F)c(N4CCN(C(=O)CCCCCN5CCC(C(=O)Nc6ncc(-c7ccccc7)s6)CC5)CC4)cc3C2=O)C(=O)N1` (stereo not drawn), the pIC50 in data set [1] is below 5.00.

In [1], `O=C1CCC(N2Cc3c(NC(=O)CCCCCCN4CCC(C(=O)Nc5ncc(-c6ccccc6)s5)CC4)cccc3C2=O)C(=O)N1` (stereo not drawn) showed a pIC50 of 5.31.

`O=C1CCC(N2Cc3c(NC(=O)CCCCCCC(=O)N4CCC(C(=O)Nc5ncc(-c6ccccc6)s5)CC4)cccc3C2=O)C(=O)N1` (stereo not drawn): the pIC50 in [2] is 6.39; in data set [3], 5.24; in [1] it was 6.68; in data set [4], 5.71.

Turning to `O=C1CCC(N2C(=O)c3cc(F)c(N4CCN(C(=O)CCCC(=O)N5CCC(C(=O)Nc6ncc(-c7ccccc7)s6)CC5)CC4)cc3C2=O)C(=O)N1` (stereo not drawn), the pIC50 in [8] is 6.19; in [1] it was 5.05.

`O=C1CCC(N2Cc3c(NC(=O)CCc4ccc(OCCCCC(=O)N5CCC(C(=O)Nc6ncc(-c7ccccc7)s6)CC5)cc4)cccc3C2=O)C(=O)N1` (stereo not drawn) showed a pIC50 in data set [1] below 5.00.

`O=C1CCC(N2C(=O)c3cc(F)c(N4CCN(C(=O)CCCN5CCC(C(=O)Nc6ncc(-c7ccccc7)s6)CC5)CC4)cc3C2=O)C(=O)N1` (stereo not drawn) gave a pIC50 in data set [1] of 5.07.

`O=C1CCC(N2Cc3c(NC(=O)CCCOc4ccc(CCC(=O)N5CCC(C(=O)Nc6ncc(-c7ccccc7)s6)CC5)cc4)cccc3C2=O)C(=O)N1` (stereo not drawn) had a pIC50 in data set [1] of 5.07.

Compound `O=C1CCC(N2Cc3c(NC(=O)CCCCOc4ccc(CCC(=O)N5CCC(C(=O)Nc6ncc(-c7ccccc7)s6)CC5)cc4)cccc3C2=O)C(=O)N1` (stereo not drawn) gave a pIC50 in data set [1] of 5.00.

`O=C(CC(=O)N1CCC(C(=O)Nc2ncc(-c3ccccc3)s2)CC1)NCCCCCCC(=O)Nc1cccc2c1CN(C1CCC(=O)NC1=O)C2=O` (stereo not drawn): the negative logarithm of the IC50 (pIC50) in data set [2] is 5.72; in data set [3] it was 4.75; in data set [1], 6.07; in data set [4] it was 5.16.

Compound `O=C1CCC(N2C(=O)c3cc(F)c(N4CCN(C(=O)CCCCCC(=O)N5CCC(C(=O)Nc6ncc(-c7ccccc7)s6)CC5)CC4)cc3C2=O)C(=O)N1` (stereo not drawn) showed a pIC50 in data set [1] of 5.39.

`O=C1CCC(N2Cc3c(NC(=O)CCc4ccc(OCCCC(=O)N5CCC(C(=O)Nc6ncc(-c7ccccc7)s6)CC5)cc4)cccc3C2=O)C(=O)N1` (stereo not drawn) had a pIC50 in data set [1] below 5.00.

Broadly, the pIC50 is the negative decadic logarithm of the IC50, by convention in mol/L.
